Test [1] has as its system U266 cells (Multiple myeloma). In words: Growth inhibition of human tumor cell lines (MTT). It is filed as cell-based. Particulars: SS 12.5 μg/ml, IFNα 1,000 u/ml, alone or combined. The procedure: (§1) FIG. 8 illustrates growth inhibition of human cell lines of hematopoietic malignancies by sodium stibogluconate and/or IFNα: A and B. Growth of DS and DR cells cultured in the absence or presence of various amounts of sodium stibogluconate and/or IFNα (1,000 u/ml) for 3 days was measured by MTT assays; C. Percentage of growth inhibition of DR cells calculated from data in B; D. Percentage of growth inhibition of DR cells by IFNα (1,000 u/ml) and various amounts of sodium stibogluconate in day 6 cultures measured by MTT assays; E. Percentage of growth inhibition of U266 cells by IFNα (1,000 u/ml) and various amounts of sodium stibogluconate in day 6 cultures as measured by MTT assays.

The subject of test [2] is DR cells (Burkitt's Lymphoma). Description: Growth inhibition of human tumor cell lines (MTT). Format: cell-based. The procedure:
as §1

Test [3] relates to DU145 human prostate carcinoma xenografts. Description: Xenografts of human prostate carcinoma in nude mice, tumor volume. It is filed as in vivo. The conditions noted are these: day 25, IFNα 500,000 U s.c. daily, sodium stibogluconate 12 mg Sb s.c. daily, alone or combined. An excerpt:
(§2) FIG. 11 illustrates that sodium stibogluconate appears to synergize with IFNα against WM9 human melanoma tumors in nude mice. IFNα or both on the growth of xenografts of human melanoma cell line WM9 and human prostate carcinoma cell line DU-145 in athymic nude mice. Nude mice of 4 weeks old were inoculated subcutaneously (s.c.) with WM9 human melanoma cells (3×10^6 cells/site) (A) or DU-145 human prostate cancer cells (2×10^6 cells/site) (B) on day 0. Starting on day 2, the mice were subjected to no treatment (Control) or treatment with IFNα (500,000 U, s.c., daily), sodium stibogluconate (12 mg, s.c., daily) or both (Combo). Tumor volume in the nude mice (4 mice/group, 2 tumors/mouse) was measured on the days as indicated. Tumor volume was calculated by the equation: (length×width^2)/2 to compare tumor growth rates. All mice survived by the end of the experiment. […]
For each of the cell lines, each of 16 mice received subcutaneous injection at the chest area of 3×10^6 cells/site (WM9) or 2×10^6 cells/site (DU145), two sites/mouse, on day 0. […] Tumor size was measured with a caliper to determine the two perpendicular diameters of each tumor. Tumor volume was calculated using the method of the NCI (length×width^2 in millimeters/2=volume in cubic millimeters).

Test [4] concerns WM9 human melanoma xenografts. In words: Xenografts of human melanoma in nude mice, tumor volume. It is filed as in vivo. The conditions noted are these: day 25, IFNα 500,000 U s.c. daily, sodium stibogluconate 12 mg Sb s.c. daily.
From the text: as §2
For each of the cell lines, each of 16 mice received subcutaneous injection at the chest area of 3×10^6 cells/site (WM9) or 2×10^6 cells/site (DU145), two sites/mouse, on day 0. […] Tumor size was measured with a caliper to determine the two perpendicular diameters of each tumor. Tumor volume was calculated using the method of the NCI (length×width^2 in millimeters/2=volume in cubic millimeters). […]
(Xenograft models place foreign cells or tissue in a host animal.)

Test [5] has as its target T1, intracellular Flag-PRL-3 (Homo sapiens, UniProt O75365).
T1 construct: expressed in transfected cells; host or cells: NIH3T3
Description: PTPase activity of anti-Flag immunocomplexes from NIH3T3 transfectants. Format: cell-based. Particulars: treated 5 min. The procedure:
(§3) An expression construct of Flag-tagged PRL-1 or control vector was transfected into NIH3T3 cells which were then treated without or with sodium stibogluconate and used for immunoprecipitation assays with a monoclonal anti-Flag antibody. The immunocomplexes were analyzed by SDS-PAGE/Western blotting and PTPase assays. A Flag-tagged protein with a molecular weight approximately 22 kDa as expected for Flag-PRL-1 was detected in the immunocomplexes from untreated or sodium stibogluconate -treated Flag-PRL-1 transfectants but not in those from the control cells (FIG. 6A).
(§4) Glucatime inactivates intracellular PRL phosphatases. NIH3T3 stable transfectants of Flag-tagged PRL-1 (A), PRL-2 (B) and PRL-3 (C) were untreated or treated with glucatime for 5 minutes and then washed to remove cell free drug. The Flag-tagged PRLs were immunoprecipitated from the cells using a monoclonal anti-Flag antibody. The amounts of Flag-tagged PRLs in the immunocomplexes were quantified by SDS-PAGE/Western blotting with the anti-Flag antibody (the top panel). Activities of the immunocomplexes in dephosphorylating a synthetic phosphotyrosine peptide were determined by in vitro PTPase assays (the low panel).

Test [6] addresses T2, intracellular Flag-PRL-1 (Homo sapiens, UniProt Q93096).
T2 construct: expressed in transfected cells; host or cells: NIH3T3
Described as above. It is filed as cell-based. The conditions noted are these: treated 5 min. The procedure:
as §3, §4

The target of test [7] is T3, GST/SHP-1 fusion protein (Mus musculus, UniProt P29351).
T3 construct: made in house
T3 sequence (P29351 whole entry, the tested form may be a part): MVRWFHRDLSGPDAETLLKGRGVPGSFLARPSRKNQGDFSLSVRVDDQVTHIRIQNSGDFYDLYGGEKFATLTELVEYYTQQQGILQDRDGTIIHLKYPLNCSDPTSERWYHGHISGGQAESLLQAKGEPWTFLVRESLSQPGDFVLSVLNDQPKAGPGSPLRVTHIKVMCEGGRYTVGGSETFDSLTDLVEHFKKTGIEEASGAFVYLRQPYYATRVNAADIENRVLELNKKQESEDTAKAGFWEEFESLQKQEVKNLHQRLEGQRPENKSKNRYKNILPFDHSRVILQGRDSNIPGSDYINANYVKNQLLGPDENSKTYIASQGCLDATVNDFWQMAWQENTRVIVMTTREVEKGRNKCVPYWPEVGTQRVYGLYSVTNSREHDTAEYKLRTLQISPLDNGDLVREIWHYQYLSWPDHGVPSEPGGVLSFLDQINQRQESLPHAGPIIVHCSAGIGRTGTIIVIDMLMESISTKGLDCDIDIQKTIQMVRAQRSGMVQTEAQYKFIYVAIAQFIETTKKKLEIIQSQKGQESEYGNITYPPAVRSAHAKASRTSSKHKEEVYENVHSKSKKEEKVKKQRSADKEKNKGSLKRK
Description: Reversibility of SHP-1 inhibition (washing of bead-bound GST/SHP-1). Format: biochemical. The conditions noted are these: preincubated with inhibitor, then washed. The source says:
The beads were then washed 3 times in Tris buffer or without washing prior to in vitro PTPase assays.

T2 sequence (Q93096 whole entry): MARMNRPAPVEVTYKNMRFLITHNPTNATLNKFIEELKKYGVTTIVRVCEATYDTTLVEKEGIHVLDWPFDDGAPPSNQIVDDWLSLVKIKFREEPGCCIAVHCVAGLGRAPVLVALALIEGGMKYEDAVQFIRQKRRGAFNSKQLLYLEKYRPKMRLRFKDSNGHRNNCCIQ
T1 sequence (O75365 whole entry): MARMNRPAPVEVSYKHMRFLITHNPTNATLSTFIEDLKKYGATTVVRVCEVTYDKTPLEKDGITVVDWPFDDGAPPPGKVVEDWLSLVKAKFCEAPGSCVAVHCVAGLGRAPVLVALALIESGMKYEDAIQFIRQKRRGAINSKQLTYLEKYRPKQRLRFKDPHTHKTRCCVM

With IFNα, the “% of growth inhibition by day 6 (±s.d.)” value in test [1] is recorded as 78 (10) %; in test [2] (DR, SS 12.5 μg/ml, IFNα 1,000 u/ml, alone or combined), 39%. Besides, in test [2] (IFNα 1,000 u/ml alone or with various amounts of sodium stibogluconate, day 3), the “growth inhibition of DR cells, day 3” value is reported as 19%. Further, the “average tumor volume, of the control” value in test [3] was “approximately 70%”. Also, the “average tumor volume, of the control group” value in test [4] is listed as “approximately 40%”.

For `O.O.O.O.O.O.O.O.O.O=C([O-])[C@@H]1[O][Sb]2([O-])([O][Sb]34([OH])[O][C@H]([C@H](O)CO)[C@H]([O]3)[C@H](C(=O)[O-])[O]4)[O][C@H]([C@H](O)CO)[C@@H]1[O]2.[Na+].[Na+].[Na+]` [sodium stibogluconate], in test [5], the “PTPase activity of Flag-PRL-3 immunocomplexes from treated transfectants” value is “lack of PTPase activity”. In test [6], the “PTPase activity of Flag-PRL-1 immunocomplexes from treated transfectants” value is reported as “little PTPase activities”. Further, the “reversibility of SHP-1 inhibition” value in test [7] was “stable complexes”.

These data come from patent US7744867B2, “PTPase inhibitors and method of using same” (The Cleveland Clinic Foundation, priority 2001, dated 2010).
